Here are results for seven compounds from US4218443A, “Polyether ionophores as antiobesity and hypotriglyceridemic agents” (Hoffmann-La Roche Inc., priority 1979, dated 1980).

Like-named read-outs stand apart in the source and are kept apart here.

The target in one test is T1, human pancreatic lipase (Homo sapiens, UniProt P16233).
T1 construct: Human pancreatic juice was obtained from a patient with acute pancreatitis; from tissue; host or cells: human pancreatic juice from the cannulated duct of a patient with acute pancreatitis; gift of Dr. George Nardi, Massachusetts General Hospital
T1 sequence (P16233 17-465): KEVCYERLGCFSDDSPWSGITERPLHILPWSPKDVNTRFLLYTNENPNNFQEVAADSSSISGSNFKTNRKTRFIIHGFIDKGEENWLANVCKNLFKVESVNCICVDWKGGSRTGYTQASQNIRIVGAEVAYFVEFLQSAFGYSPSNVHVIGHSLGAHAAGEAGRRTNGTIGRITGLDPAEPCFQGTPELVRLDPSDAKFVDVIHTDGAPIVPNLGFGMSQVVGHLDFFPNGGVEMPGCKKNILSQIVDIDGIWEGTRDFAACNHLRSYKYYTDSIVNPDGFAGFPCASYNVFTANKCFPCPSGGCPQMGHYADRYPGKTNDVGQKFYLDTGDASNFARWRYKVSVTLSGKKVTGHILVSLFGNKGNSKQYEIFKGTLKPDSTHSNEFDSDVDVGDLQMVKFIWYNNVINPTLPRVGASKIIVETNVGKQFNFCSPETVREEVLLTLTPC
The test can be described thus: In vitro titrimetric (Radiometer pH-stat) pancreatic lipase assay, Dixon plots. It counts as biochemical. Particulars: in vitro Radiometer assay, read-out: Inhibition constants for bromolasalocid inhibition of human pancreatic lipase.

The subject of test [1] is fatty acid synthesis in isolated hepatocytes. Put plainly: In vitro fatty acid synthesis in isolated hepatocytes. It is filed as cell-based, Charles River female rat. The following applies: Rattus norvegicus, Hepatocyte, 1 h, pH 7.4; for activity at 500 µM: 0.5 mM; for activity at 1000 µM: 1.0 mM. How it is done:
Hepatocytes were prepared from meal-fed Charles River female rats as described previously, [A. C. Sullivan, J. Triscari, J. G. Hamilton and J. A. Ontko (1977). Hypolipidemic activity of (-)-hydroxycitrate, Lipids, 12: 1-9]. Briefly, rats were anesthetized with Nembutal, livers were perfused in situ and hepatocytes were isolated in Krebs-Henseleit bicarbonate buffer, pH 7.4. Incubations with isolated hepatocytes were performed in triplicate at 37° C. Each incubation flask contained in a total volume of 2.1 ml, 10.5 mg cells (dry weight), 1 ml of Krebs-Henseleit buffer, pH 7.4, radioactive substrate (1 μCi [U-^14 C]alanine, 1 mCi^3 H2 O and 1 μmole alanine) and 0.3% glucose. The appropriate concentration of inhibitor was prepared in dimethylsulfoxide and added to the incubation flask. Dimethylsulfoxide had no effect on fatty acid synthesis. ^3 H2 O was used to determine the total rate of fatty acid synthesis independently of carbon precursors of acetyl CoA. [^14 C]alanine was used as an acetyl CoA precursor. Rates of fatty acid synthesis were determined as described previously, [A. C. Sullivan, J. Triscari, J. G. Hamilton and J. A. Ontko (1977). Hypolipidemic activity of (-)-hydroxycitrate, Lipids, 12: 1-9]. Data are expressed as nmoles ^3 H2 O or [^14 C]alanine converted into fatty acids per mg dry weight cells in 60 minutes.

Test [2] concerns intestinal absorption of triglycerides (corn oil). Put plainly: In vivo absorption of triglycerides (corn oil absorption).
The target in a further test is T2, pancreatic lipase (Rattus norvegicus, UniProt P27657).
T2 construct: stimulated to release pancreatic proteins by addition of 10^-5 M carbachol; from tissue; host or cells: pancreatic lobules of fasted Charles River female rats; released pancreatic juice, centrifuged
T2 sequence (P27657 17-465): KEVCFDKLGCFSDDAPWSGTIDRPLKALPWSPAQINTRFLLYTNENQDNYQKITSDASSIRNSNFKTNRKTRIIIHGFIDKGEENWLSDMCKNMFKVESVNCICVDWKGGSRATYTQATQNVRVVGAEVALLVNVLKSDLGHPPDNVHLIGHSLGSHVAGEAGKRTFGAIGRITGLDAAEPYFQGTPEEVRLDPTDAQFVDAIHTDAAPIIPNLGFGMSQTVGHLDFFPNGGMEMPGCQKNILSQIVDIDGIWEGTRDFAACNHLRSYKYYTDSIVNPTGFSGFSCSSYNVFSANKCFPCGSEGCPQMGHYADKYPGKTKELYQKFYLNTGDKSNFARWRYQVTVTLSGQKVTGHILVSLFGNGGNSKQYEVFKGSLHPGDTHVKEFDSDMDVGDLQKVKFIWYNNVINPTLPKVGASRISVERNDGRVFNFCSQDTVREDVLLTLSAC
Put plainly: In vitro pancreatic lipase screen ([14C]-triolein assay). It counts as biochemical. Particulars: read-out: Pancreatic Lipase Activity I50. How it is done:
The method for assaying pacreatic lipase in vitro using [^14 C]-triolein was based on the method of Garfinkel and Schotz for lipoprotein lipase, [A. S. Garfinkel and M. C. Schotz (1972). […] Glycerol tri[1-^14 C]oleate (32 mM) was emulsified in 0.2 M Tris-HCl pH 8 containing 0.15 M NaCl, bovine serum albumin (15 mg/ml) and sodium taurocholate (1.4 mM) by sonication for three, one min intervals at 80 watts. Final assay volume was 1.0 ml. The reaction was initiated by the addition of enzyme and was allowed to proceed for 10 min. The reaction was linear for up to 20 min. The liberated free fatty acids were extracted into 0.1 M KOH and quantitated in a liquid scintillation counter using 2,5-bis-2-(5-tertbutylbenzoxazolyl)-tniophene (BBOT) scintillation fluid (Yorktown Research, South Hackensack, N.J.).
Ionophores were added to the above assay as solutions in either 90% ethanol or water, pH 8; 90% ethanol had no effect on the enzyme activity assayed by either method.

Test [3] concerns meal-fed Charles River rats. The test can be described thus: Food consumption and serum parameters in meal-fed rats (in vivo fatty acid synthesis experiments). On the set-up: species or system Charles River rat. Particulars: 60 mg/kg i.p., sodium salt, mean ± SE. How it is done:
(§1) In the following examples, female rats (Charles River CD strain, 180-200 g) were housed individually in wire bottom cages in a temperature (22°) and light (12 hr light and 12 hr dark) regulated room. They had free access to Purina Rodent Chow and water.
Faster enzymatic procedure for serum triglycerides, Clinical Chemistry, 21: 1983-1985], cholesterol, [C. C. Allain, L. Poon, S. G. Chan, W. Richmond and P. Fu (1974). Enzymatic determination of total serum cholesterol, Clinical Chemistry, 20: 470-475] and glucose, [R. Konig, H. Dauwalder and R. Richterich (1971). Vergleichende Bestimmunogen der Uringlucosekonzentration mit der Polarimetrie und einer enzymatischen Methode (Hexokinase/Glucose-6-Phosphat-Dehydrogenase), Schweiz. Med. Wschr., 101: 860-866] by enzymatic procedures.

The subject of test [4] is hepatic fatty acid synthesis. Put plainly: In vivo hepatic fatty acid synthesis in meal-fed rats. Set-up: species or system Charles River rat. The following applies: 60 mg/kg i.p., sodium salt, mean ± SE. As to the method:
as §1

The mark [5] stands for this setting: read-out: Fatty Acid Synthesis 3H2O.
The mark [6] stands for this setting: read-out: Fatty Acid Synthesis [14C]alanine.
The mark [7] stands for this setting: Experiment 1, di-(N-methylglucamine), 325 mg/kg p.o.
Where [8] appears, read: Experiment 1, ethanolate, 145 mg/kg p.o.
The mark [9] stands for this setting: Experiment 1, sodium, 140 mg/kg p.o.

Consider `CC[C@@H](C(=O)[C@@H](C)[C@@H](O)[C@H](C)CCc1c(Br)cc(C)c(O)c1C(=O)O)[C@H]1O[C@](CC)([C@H]2CC[C@](O)(CC)[C@H](C)O2)C[C@@H]1C` [Bromolasalocid, Ethanolate], for which the Ki at human pancreatic lipase was 100 µM.
With `CC[C@@H](C(=O)[C@@H](C)[C@@H](O)[C@H](C)CCc1c(Br)cc(C)c(O)c1C(=O)O)[C@H]1O[C@](CC)([C@H]2CC[C@](O)(CC)[C@H](C)O2)C[C@@H]1C` [Bromolasalocid, Na^+], the Ki at human pancreatic lipase came out at 50 µM. Besides, in test [1] (setting [5]), the activity at 500 µM was determined as 14% and the activity at 1000 µM stood at 22%. In test [1] (setting [6]), the activity at 500 µM came out at 0% and the activity at 1000 µM is 0%.
As to `CC[C@@H](C(=O)[C@@H](C)[C@@H](O)[C@H](C)CCc1c(Br)cc(C)c(O)c1C(=O)O)[C@H]1O[C@](CC)([C@H]2CC[C@](O)(CC)[C@H](C)O2)C[C@@H]1C` [Bromolasalocid, di-(N-methylglucamine)], at human pancreatic lipase, the Ki came to 160 µM.
With `CC[C@@H](C(=O)[C@@H](C)[C@@H](O)[C@H](C)CCc1c(Br)cc(C)c(O)c1C(=O)O)[C@H]1O[C@](CC)([C@H]2CC[C@](O)(CC)[C@H](C)O2)C[C@@H]1C` [Bromolasalocid], the figures for the “Area under curve (corn oil absorption)” value in test [2] (setting [7]), in test [2] (setting [8]) and in test [2] (setting [9]) were 660, 704 and 659, respectively. Also, the “Area under curve, % of control” value in test [2] (setting [7]) is reported as 60 % of control; in test [2] (setting [8]) it was 64 % of control; in test [2] (setting [9]), 60 % of control. Besides, the IC50 on pancreatic lipase was found to be 600 µM.
`CC/C(=C\C=C\[C@@H]1C=C[C@@H]2[C@@H](CC)CC[C@H]2[C@@H]1C(=O)c1ccc[nH]1)[C@@H]1O[C@@H]([C@@H](C)C(=O)O)CC[C@@H]1C` [X-14547A]: the IC50 on pancreatic lipase stood at 700 µM.
Consider Lysocellin, for which the IC50 on pancreatic lipase was 800 µM.
For Monensin, in test [3], the “Food Consumption” value came to 16.1 ± 1.4 g. In test [4], the “Fatty Acid Synthesis 3H2O converted” value was 14.8 ± 4.0 μmoles per 1 g liver in 30 min and the “Fatty Acid Synthesis [14C]alanine converted” value is 209 ± 64 nmoles per 1 g liver in 30 min.
